The record followed here is patent US11236047B2 (ASTEX THERAPEUTICS LIMITED, priority 2017, dated 2022).

Broadly, the IC50 is the midpoint of a concentration-inhibition curve. By inhibition is commonly meant the change of the read-out against control, counted positive when it falls.

Read-outs that look alike come from different tables or passages of the source.

One assay has as its system SN40R2 cells. Briefly: Protocol B: SN40R2 CellTiter-Glo luminescent cell viability assay. Particulars: for IC50: read-out: SN40R2 IC50 (μM) (Protocol B).
In another assay the test system is SJSA-1 cells. Briefly: Protocol B: SJSA-1 CellTiter-Glo luminescent cell viability assay.
Where [1] appears, read: read-out: SN40R2 % inhibition at 10.
Where [2] appears, read: read-out: SN40R2 % inhibition at 10, Protocol B, SN40R2, at 10 μM.
[3] abbreviates: Homo sapiens, SJSA-1, read-out: SJSA1 IC50 (μM) (Protocol B), SJSA-1, Protocol B.
The mark [4] stands for this setting: Homo sapiens, SJSA-1, read-out: SJSA1 IC50 (μM), Protocol B, SJSA-1.
[5] abbreviates: read-out: SJSA1 IC50 (μM) (Protocol B), SJSA-1, Protocol B.
Setting [6] is: read-out: SJSA1 IC50, Protocol B, SJSA-1.

Method for SJSA-1 cells: Protocol B: SJSA-1 and SN40R2 Assays
The CellTiter-Glo® Luminescent Cell Viability Assay is a homogeneous method to determine the number of viable cells in culture based on quantitation of the ATP present, which signals the presence of metabolically active cells. […] 100 μl of CTG reagent (Promega #G7573) was added to all wells and luminescence was measured on the topcount. The EC50 values were determined from a sigmoidal 4 parameter curve fit using XLfit in conjunction with Activity Base (IDBS; Guildford, Surrey, UK).

`CN1CCN(CC(C)(O)c2cc(F)c3c(c2)C(=O)N(Cc2ccc(Cl)cc2S(C)(=O)=O)[C@@]3(OC2CCOC2)c2ccc(Cl)cc2)CC1` (single isomer, unassigned) [Example 67]: the IC50 in the assay with SN40R2 cells (72 h) worked out at 9.4 µM.

Take `CO[C@]1(c2ccc(Cl)cc2)c2c(F)cc(C(C)(O)C3CCN(c4ncccn4)CC3)cc2C(=O)N1Cc1ccc(Cl)cn1` (single isomer, unassigned) [Example 286]: the IC50 in the assay on SN40R2 cells was 12 µM.

For `CN1CCC(C(C)(O)c2cc(F)c3c(c2)C(=O)N(Cc2ccc(Cl)cn2)[C@@]3(OCC2(C(N)=O)CC2)c2ccc(Cl)cc2)CC1` (single isomer, unassigned) [Example 306], the IC50 in the assay with SN40R2 cells stood at 13 µM.

Take `C=CC(O)(c1cc(F)c2c(c1)C(=O)N(Cc1ccc(C#N)cn1)[C@@]2(O[C@H]1C[C@@H](O)C1)c1ccc(Cl)cc1)c1cnn(C)c1` (single isomer, unassigned) [Example 361]: the inhibition at 10 µM in the assay with SN40R2 cells (setting [1]) was determined as 8%.

Regarding `CC(=O)N1CCC(C(C)(O)c2cc(F)c3c(c2)C(=O)N(Cc2ncc(Cl)cn2)[C@@]3(O[C@H]2C[C@@H](O)C2)c2ccc(Cl)cc2)CC1` (single isomer, unassigned) [Example 425], the inhibition at 10 µM with SN40R2 cells (setting [1]) is 7%.

In the case of `CO[C@]1(c2ccc(Cl)cc2)c2c(F)cc(C(C)(O)C3CCN(CC(=O)O)CC3)cc2C(=O)N1Cc1ccc(Cl)cn1` (single isomer, unassigned) [Example 459], in the assay with SN40R2 cells (setting [1]), the inhibition at 10 µM was 7%.

Turning to `CCC(O)(c1cc(F)c2c(c1)C(=O)N(Cc1ncc(C#N)cn1)[C@@]2(O[C@H]1CCOC1)c1ccc(Cl)cc1)c1ccn(C)n1` (single isomer, unassigned) [Example 489], the inhibition at 10 µM in the assay with SN40R2 cells (setting [2]) was -9%.

Turning to `CCC(O)(CN1CCNCC1)c1cc(F)c2c(c1)C(=O)N(Cc1ncc(Cl)cn1)[C@@]2(O[C@H]1CCOC1)c1ccc(Cl)cc1` (single isomer, unassigned) [Example 524], the inhibition at 10 µM in the assay on SN40R2 cells (setting [1]) came out at 35%.

On to `CCC(O)(CN1CC[C@@H](O)C1)c1cc(F)c2c(c1)C(=O)N(Cc1ncc(Cl)cn1)[C@@]2(O[C@H]1CCOC1)c1ccc(Cl)cc1` (single isomer, unassigned) [Example 526], for which the inhibition at 10 µM with SN40R2 cells (setting [1]) came to 9%.

Consider `CC[C@@](O)(c1cc(F)c2c(c1)C(=O)N(Cc1ncc(Cl)cn1)[C@@]2(OC)c1ccc(Cl)cc1)C1CCN(CCO)CC1` (single isomer, unassigned) [Example 550], for which the inhibition at 10 µM in the assay on SN40R2 cells (setting [1]) was 33%.

As for `CCC(O)(c1cc(F)c2c(c1)C(=O)N(Cc1ncc(Cl)cn1)[C@@]2(OC[C@@H](C)O)c1ccc(Cl)cc1)C1(F)CCN(C)CC1` (single isomer, unassigned) [Example 572], the inhibition at 10 µM in the assay with SN40R2 cells (setting [2]) is 23%.

For the molecule `CC(O)(c1cc(F)c2c(c1)C(=O)N(Cc1ncc(Cl)cn1)[C@@]2(OCC1(C(N)=O)CC1)c1ccc(Cl)cc1)C1CCOCC1` (stereo partly drawn) [Example 284, 1-({[(1R)-1-(4-chlorophenyl)-2-[(5-chloropyrimidin-2-yl)methyl]-7-fluoro-5-[1-hydroxy-1-(oxan-4-yl)ethyl]-3-oxo-2,3-dihydro-1H-isoindol-1-yl]oxy}methyl)cyclopropane-1-carboxamide], the IC50 in the assay with SJSA-1 cells (setting [3]) was determined as 0.017 µM.

`CCC(O)(c1cc(F)c2c(c1)C(=O)N(Cc1ccc(Cl)nc1)[C@@]2(OCCO)c1ccc(Cl)cc1)c1cn(C)cn1` (stereo partly drawn) [Example 367, (3R)-3-(4-chlorophenyl)-2-[(6-chloropyridin-3-yl)methyl]-4-fluoro-6-[1-hydroxy-1-(1-methyl-1H-imidazol-4-yl)propyl]-3-(2-hydroxyethoxy)-2,3-dihydro-1H-isoindol-1-one]: in the assay on SJSA-1 cells (setting [4]), the IC50 is 0.11 µM.

On to `CO[C@]1(c2ccc(Cl)cc2)c2c(F)cc(C(C)(O)C3CN(C(C)=O)C3)cc2C(=O)N1Cc1ccc(Cl)cn1` (stereo partly drawn) [Example 389, (3R)-6-[1-(1-acetylazetidin-3-yl)-1-hydroxyethyl]-3-(4-chlorophenyl)-2-[(5-chloropyridin-2-yl)methyl]-4-fluoro-3-methoxy-2,3-dihydro-1H-isoindol-1-one], for which the IC50 in the assay on SJSA-1 cells (setting [5]) was 4.2 µM.

As for `CO[C@]1(c2ccc(Cl)cc2)c2c(F)cc(C(C)(O)C3CN(C(C)=O)C3)cc2C(=O)N1Cc1ccc(Cl)cn1` (stereo partly drawn) [Example 390, (3R)-6-[1-(1-acetylazetidin-3-yl)-1-hydroxyethyl]-3-(4-chlorophenyl)-2-[(5-chloropyridin-2-yl)methyl]-4-fluoro-3-methoxy-2,3-dihydro-1H-isoindol-1-one], the IC50 in the assay on SJSA-1 cells (setting [5]) is 0.63 µM.

`CO[C@]1(c2ccc(Cl)cc2)c2c(F)cc(C(C)(O)C3CN(C(=O)CO)C3)cc2C(=O)N1Cc1ccc(Cl)cn1` (stereo partly drawn) [Example 391, (3R)-3-(4-chlorophenyl)-2-[(5-chloropyridin-2-yl)methyl]-4-fluoro-6-{1-hydroxy-1-[1-(2-hydroxyacetyl)azetidin-3-yl]ethyl}-3-methoxy-2,3-dihydro-1H-isoindol-1-one]: the IC50 in the assay with SJSA-1 cells (setting [3]) is 0.66 µM.

For the molecule `CO[C@]1(c2ccc(Cl)cc2)c2c(F)cc(C(C)(O)C3CN(C(=O)N(C)C)C3)cc2C(=O)N1Cc1ccc(C#N)cn1` (stereo partly drawn) [Example 393, 3-{1-[(1R)-1-(4-chlorophenyl)-2-[(5-cyanopyridin-2-yl)methyl]-7-fluoro-1-methoxy-3-oxo-2,3-dihydro-1H-isoindol-5-yl]-1-hydroxyethyl}-N,N-dimethylazetidine-1-carboxamide], the IC50 with SJSA-1 cells (setting [4]) stood at 0.79 µM.

`O=C1c2cc(C(O)C3CCS(=O)(=O)CC3)cc(F)c2[C@](OCC2(O)CC2)(c2ccc(Cl)cc2)N1Cc1ncc(Cl)cn1` (stereo partly drawn) [Example 400, 4-{[(1R)-1-(4-chlorophenyl)-2-[(5-chloropyrimidin-2-yl)methyl]-7-fluoro-1-[(1-hydroxycyclopropyl)methoxy]-3-oxo-2,3-dihydro-1H-isoindol-5-yl](hydroxy)methyl}-1λ6-thiane-1,1-dione]: the IC50 in the assay with SJSA-1 cells (setting [4]) stood at 1.1 µM.

On to `Cn1cc(C(C)(O)c2cc(F)c3c(c2)C(=O)N(Cc2ccc(Cl)c[n+]2[O-])[C@@]3(OCC2(O)CC2)c2ccc(Cl)cc2)cn1` (stereo partly drawn) [Example 409, (3R)-2-[(5-chloro-1-oxo-1λ^5-pyridin-2-yl)methyl]-3-(4-chlorophenyl)-4-fluoro-6-[1-hydroxy-1-(1-methyl-1H-pyrazol-4-yl)ethyl]-3-[(1-hydroxycyclopropyl)methoxy]-2,3-dihydro-1H-isoindol-1-one], for which the IC50 with SJSA-1 cells (setting [3]) was 0.41 µM.

Turning to `CC(C)(O)c1cc(F)c2c(c1)C(=O)N([C@@H](CO)c1ccc(Cl)cn1)[C@@]2(OCC1(CO)CC1)c1ccc(Cl)cc1` [Example 418, (3R)-3-(4-Chlorophenyl)-2-[(1R)-1-(5-chloropyridin-2-yl)-2-hydroxyethyl]-4-fluoro-3-{[1-(hydroxymethyl)cyclopropyl]methoxy}-6-(2-hydroxypropan-2-yl)-2,3-dihydro-1H-isoindol-1-one], in the assay with SJSA-1 cells (setting [3]), the IC50 worked out at 0.28 µM.

With `[2H]C([2H])(O)C1(C([2H])([2H])O[C@]2(c3ccc(Cl)cc3)c3c(F)cc(C(O)(CC)c4cn(C)cn4)cc3C(=O)N2Cc2ccc(C#N)cn2)CC1` (stereo partly drawn) [Example 440, 6-{[(1R)-1-(4-chlorophenyl)-7-fluoro-1-({1-[hydroxy(^2H2)methyl]cyclopropyl}(^2H2)methoxy)-5-[1-hydroxy-1-(1-methyl-1H-imidazol-4-yl)propyl]-3-oxo-2,3-dihydro-1H-isoindol-2-yl]methyl}pyridine-3-carbonitrile], the IC50 with SJSA-1 cells (setting [6]) worked out at 1.9 µM.

As to `CC(O)(c1cc(F)c2c(c1)C(=O)N(Cc1ncc(Cl)cn1)[C@@]2(O[C@H]1C[C@@H](O)C1)c1ccc(Cl)cc1)[C@H]1CC[C@H](O)CC1` (stereo partly shown) [Example 496], the IC50 in the assay on SJSA-1 cells (setting [6]) was determined as 1.8 µM.
